Assay results taken from US20100234372A1, “SUBSTITUTED 2-MERCAPTOQUINOLINE-3-CARBOXAMIDES AS KCNQ2/3 MODULATORS” (GRUNENTHAL GMBH, priority 2009, published 2010).

Experiments:
[1] = test system: Male Sprague-Dawley rats; assay: Low-intensity tail flick in rats; type: in vivo; details: po, rat
From the text: The antinociceptive activity of the test substance against an acute noxic thermal stimulant was examined in the tail-flick test in rats using the method described by D′Amour and Smith (J. Pharm. Exp. Ther. 72, 74 79 (1941)). Male Sprague-Dawley rats weighing between 200 and 250 g were used (breeder: Janvier, Le Genest St. Isle, France). The animals were placed in special test compartments and the base of the tail was exposed to a focused light beam from an analgesia meter (model 2011, Rhema Labortechnik, Hofheim, Germany). 10 animals were used per group. Before administering a substance according to the invention, the tail-flick latency (time from switching on the light beam to the flick of the tail) was measured twice at an interval of five minutes and the average was defined as the control latency time. The intensity of the light beam was chosen so that the control latency time was 7 to 9 seconds.
The measurement of the tail-flick latency was then repeated 10, 20, 30 and 60 minutes after peroral administration of the substance. The antinociceptive action of the test substance was determined as the increase in the tail-flick latency time using the following formula:
where T0=control latency time before administration of the substance, T1=latency time after administration of the substance, T2=maximum exposure time to the light beam (30 seconds), MPE=maximum possible effect.
Analysis of variance (repeated measures ANOVA) was used to test for statistically significant differences between the substance and vehicle group. The significance level was set at ≦0.05.

[2] = target: T1, KCNQ2/3 channels (Homo sapiens, UniProt O43525+O43526); assay: Fluorescence assay using a voltage-sensitive dye (fluorimetry); type: cell-based; details: for EC50: CHO-K1 cells expressing KCNQ2/3 channels; for Emax at 1 µM: 50 μM retigabine = 100%, CHO-K1 cells expressing KCNQ2/3, read-out: Fluorimetry % efficacy at 1 μM (50 μM retigabine = 100%)
T1 construct: expressed in transfected cells; host or cells: CHO-K1 cells
Experimental: […] CHO-K1 cells expressing KCNQ2/3 channels are cultivated adherently at 37° C., 5% CO2 and 95% humidity in cell culture bottles (e.g. 80 cm^2 TC flasks, Nunc) with DMEM-high glucose (Sigma Aldrich, D7777) including 10% FCS (PAN Biotech, e.g. 3302-P270521) or alternatively MEM Alpha Medium (1×, liquid, Invitrogen, #22571), 10% foetal calf serum (FCS) (Invitrogen, #10270-106, heat-inactivated) and the necessary selection antibiotics.
Before being seeded out for the measurements, the cells are washed with a 1×DPBS buffer without Ca^2+/Mg^2+ (e.g. Invitrogen, #14190-094) and detached from the bottom of the culture vessel by means of Accutase (PAA Laboratories, #L11-007) (incubation with Accutase for 15 min at 37° C.). The cell count then present is determined using a CASY™ cell counter (TCC model, Scharfe System) in order subsequently to apply 20,000 to 30,000 cells/well/100 μl of the described nutrient medium, depending on density optimisation for the individual cell line, to 96-well measuring plates of the Corning™ CeIIBIND™ type (flat clear-bottom black polystyrene microplates, #3340). Incubation is then carried out for one hour at room temperature, without gassing or adjusting the humidity, followed by incubation for 24 hours at 37° C., 5% CO2 and 95% humidity.
The voltage-sensitive fluorescent dye from the Membrane Potential Assay Kit (Red™ bulk format part R8123 for FLIPR, MDS Analytical Technologies™) is prepared by dissolving the contents of a vessel of Membrane Potential Assay Kit Red Component A in 200 ml of extracellular buffer (ES buffer, 120 mM NaCl, 1 mM KCl, 10 mM HEPES, 2 mM CaCl2, 2 mM MgCl2, 10 mM glucose; pH 7.4). After removal of the nutrient medium, the cells are washed with 200 μl of ES buffer, then covered with a layer of 100 μl of the dye solution prepared above and incubated for 45 min at room temperature with exclusion of light.
The fluorescence measurements are carried out with a BMG Labtech FLUOstar™, BMG Labtech NOVOstar™ or BMG Labtech POLARstar™ instrument (525 nm excitation, 560 nm emission, bottom-read mode). After incubation of the dye, 50 μl of the substances to be tested in the desired concentrations, or 50 μl of ES buffer for control purposes, are introduced into separate cavities of the measuring plate and incubated for 30 min at room temperature whilst being shielded from light. The fluorescence intensity of the dye is then measured for 5 min and the fluorescence value F1 of each well is thus determined at a given, constant time. 15 μl of a […] KCl solution ([…]) are then added to each well. The change in fluorescence is subsequently measured until all relevant measured values have been obtained (mainly 5-30 min). At a given time after KCl application, a fluorescence value F2 is determined, in this case at the time of the fluorescence peak.
For calculation, the fluorescence intensity F2 is compared with the fluorescence intensity F1, and the agonistic activity of the target compound on the potassium channel is determined therefrom. F2 and F1 are calculated as follows: […]
is determined by adding to the reaction batch only the buffer solution instead of the substance to be tested, determining the value F1K of the fluorescence intensity, adding the potassium ions as described above and measuring a value F2K of the fluorescence intensity. Then F2K and F1K are calculated as follows: […]
Calculations of EC50 values are carried out with the aid of Prism v4.0 software (GraphPad Software™).

[3] = p.o., MPE, read-out: Low-intensity tail flick rat p.o. % effect (dose [mg/kg])

Structure (SMILES)	EC50 [2]	Emax at 1 µM [2]	inhibition in vivo at 21.5 mg/kg [1, 3]	inhibition in vivo at 10 mg/kg [1, 3]	ED50 [1]	inhibition in vivo at 4.64 mg/kg ([1]; p.o., dose 4.64 mg/kg, MPE, read-out: Low-intensity tail flick rat p.o. % effect (dose [mg/kg]))
CCSc1nc2cc(C(F)(F)F)ccc2cc1C(=O)NCc1cccs1 [compound 14]	0.291 µM	223%	9%	–	–	–
CCSc1nc2cc(C(F)(F)F)ccc2c(C)c1C(=O)NCc1cccnc1 [compound 42]	1.69 µM	175%	51%	–	–	–
CCSc1nc2ccc(O)cc2c(C)c1C(=O)NCc1cccc(F)c1 [compound 128]	–	39%	–	–	–	–
CCSc1nc2cc(O)ccc2c(C)c1C(=O)NCc1cccc(F)c1 [compound 129]	–	12%	–	–	–	–
CCSc1nc2cc(C(F)(F)F)ccc2c(N(C)C)c1C(=O)NCc1cccc(F)c1 [compound 131, 4-Dimethylamino-2-ethylsulfanyl-N-[(3-fluorophenyl)-methyl]-7-(trifluoromethyl)-quinoline-3-carboxamide]	1.82 µM	104%	–	–	–	–
CCSc1nc2cc(N(C)C)ccc2c(C)c1C(=O)NCc1ccc(F)cc1 [compound 133]	–	15%	–	–	–	–
CCSc1nc2cc(N3CCOCC3)ccc2c(C)c1C(=O)NCc1cccc(F)c1 [compound 134]	–	21%	–	–	–	–
CCSc1nc2cc(N3CCOCC3)ccc2c(C)c1C(=O)NCc1ccc(F)cc1 [compound 135]	–	6%	–	–	–	–
CCSc1nc2c(C(F)(F)F)cccc2c(C)c1C(=O)NCc1cccc(F)c1 [compound 136]	0.227 µM	164%	–	–	–	–
CCSc1nc2c(C(F)(F)F)cccc2c(C)c1C(=O)NCc1ccc(F)cc1 [compound 137]	0.225 µM	166%	–	–	–	–
CCSc1nc2c(OC)cccc2c(C)c1C(=O)NCc1cccc(F)c1 [compound 138]	2.24 µM	91%	–	–	–	–
CCSc1nc2c(OC)cccc2c(C)c1C(=O)NCc1ccc(F)cc1 [compound 139]	1.96 µM	91%	–	–	–	–
CCSc1nc2c(O)cccc2c(C)c1C(=O)NCc1cccc(F)c1 [compound 140]	1.15 µM	101%	–	–	–	–

More lines, in order of falling EC50 [2], values ahead:

EC50 [2]	Emax at 1 µM [2]	Structure (SMILES)	inhibition in vivo at 21.5 mg/kg [1, 3]	inhibition in vivo at 10 mg/kg [1, 3]	ED50 [1]	inhibition in vivo at 4.64 mg/kg ([1]; p.o., dose 4.64 mg/kg, MPE, read-out: Low-intensity tail flick rat p.o. % effect (dose [mg/kg]))
0.187 µM	144%	CCSc1nc2cc(F)c(F)cc2c(C)c1C(=O)NCc1ccc(F)cc1 [compound 109]	–	7%	–	–
0.13 µM	211%	CCSc1nc2cc(C(F)(F)F)ccc2c(C)c1C(=O)NCc1ccccc1O [compound 112, 2-Ethylsulfanyl-N-[(2-hydroxyphenyl)-methyl]-4-methyl-7-(trifluoromethyl)-quinoline-3-carboxamide]	–	17%	–	–
0.105 µM	137%	CCSc1nc2cc(C(F)(F)F)ccc2c(C)c1C(=O)NCc1ccc(F)cc1 [compound 77]	–	37%	–	–
0.092 µM	182%	CCSc1nc2cc(C(F)(F)F)ccc2c(C)c1C(=O)NCc1cccc(F)c1 [compound 76]	–	–	6.3 mg/kg	–
0.085 µM	121%	CCSc1nc2cc(C(F)(F)F)ccc2c(C)c1C(=O)NCCC(C)C [compound 37]	–	0%	–	–
0.082 µM	141%	CCSc1nc2cc(C(F)(F)F)ccc2c(C)c1C(=O)NCc1cccs1 [compound 30, 2-Ethylsulfanyl-4-methyl-N-(thiophen-2-yl-methyl)-7-(trifluoromethyl)-quinoline-3-carboxamide]	–	31%	–	–
0.064 µM	220%	Cc1c(C(=O)NCc2cccs2)c(SC(C)(C)C)nc2cc(C(F)(F)F)ccc12 [compound 89]	–	–	2.7 mg/kg	–
0.058 µM	180%	CCSc1nc2cc(C(F)(F)F)ccc2c(OC)c1C(=O)NCc1cccc(F)c1 [compound 130, 2-Ethylsulfanyl-N-[(3-fluorophenyl)-methyl]-4-methoxy-7-(trifluoromethyl)-quinoline-3-carboxamide]	–	–	–	–
0.054 µM	162%	Cc1c(C(=O)NCc2ccc(F)cc2)c(SC(C)(C)C)nc2cc(C(F)(F)F)ccc12 [compound 94]	–	–	–	71%
0.051 µM	161%	CCSc1nc2cc(OC(F)(F)F)ccc2c(C)c1C(=O)NCc1ccc(F)cc1 [compound 132, 2-Ethylsulfanyl-N-[(4-fluorophenyl)-methyl]-4-methyl-7-(trifluoromethyloxy)-quinoline-3-carboxamide]	–	–	–	–
